One may read the pIC50 as the negative decadic logarithm of the IC50, by convention in mol/L.

pIC50: −log10 of the molar value.

For test [1], the target named is T1, phosphorylated ERBB2 (pERBB2) (Homo sapiens, UniProt P04626).
T1 construct: endogenous in cells; host or cells: BT-474
The test can be described thus: Detection of phosphorylated ERBB2 (pERBB2) by ELISA in BT-474 cells. Format: cell-based. Conditions: four hour incubation with compound. The procedure, abridged: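 BT-474 cells treated 4 h at 37 °C, 5% CO2 with four-fold dilutions (10 μM to 0.01 nM final). Lysates analysed by ELISA for pERBB2, TMB read at OD 450 nm. % relative activity normalised to no-cell (low) and 0.1% DMSO-treated (high) controls.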

For a further test, the target named is Ba/F3 ERBB2 YVMA (Homo sapiens, UniProt P04626, DUP772-775, cells depend on it). The test can be described thus: Cell viability assay (CellTiter Glo) in Ba/F3 cells engineered to express ERBB2 YVMA. Format: cell-based, mouse. Conditions: Ba/F3 cells expressing human ERBB2 YVMA mutant, 72 hours, % viability, read-out: Ba/F3 ERBB2 YVMA IC50. The procedure, abridged: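 IL-3-independent mouse Ba/F3 line stably transduced with human ERBB2 YVMA, seeded at 3000 cells/well, exposed to serially diluted compound (≤0.1% DMSO) for 72 h at 37° C. ATP read by CellTiter Glo luminescence, normalised to DMSO and media-only controls; sigmoidal nonlinear regression fit.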
A general note: Cellular ATP, detected with luciferase, serves as a proxy for viable cell number.

For test [2], the target named is T2, phosphorylated EGFR (pEGFR) (Homo sapiens, UniProt P00533).
T2 construct: performed to measure phosphorylated EGFR levels using A431 cells; endogenous in cells; host or cells: A431
The test can be described thus: Detection of phosphorylated EGFR (pEGFR) in EGF-stimulated A431 cells (AlphaLISA). Format: cell-based. Conditions: A431 cells (10% FBS), 4 hours incubation, EGF 30 ng/mL for 10 minutes. In outline: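 Cells in 10% FBS treated with compound 4 h at 37° C., then stimulated 10 min with 30 ng/mL EGF, lysed, and pEGFR measured by AlphaLISA. Inhibition normalized to DMSO and staurosporine controls; IC50 from four-parameter logistic fit.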
For orientation: Bead proximity is the source of the signal in Alpha formats.

Ba/F3 ERBB2 YVMA, sequence (P04626 with tags, fused parts or gaps DUP772-775): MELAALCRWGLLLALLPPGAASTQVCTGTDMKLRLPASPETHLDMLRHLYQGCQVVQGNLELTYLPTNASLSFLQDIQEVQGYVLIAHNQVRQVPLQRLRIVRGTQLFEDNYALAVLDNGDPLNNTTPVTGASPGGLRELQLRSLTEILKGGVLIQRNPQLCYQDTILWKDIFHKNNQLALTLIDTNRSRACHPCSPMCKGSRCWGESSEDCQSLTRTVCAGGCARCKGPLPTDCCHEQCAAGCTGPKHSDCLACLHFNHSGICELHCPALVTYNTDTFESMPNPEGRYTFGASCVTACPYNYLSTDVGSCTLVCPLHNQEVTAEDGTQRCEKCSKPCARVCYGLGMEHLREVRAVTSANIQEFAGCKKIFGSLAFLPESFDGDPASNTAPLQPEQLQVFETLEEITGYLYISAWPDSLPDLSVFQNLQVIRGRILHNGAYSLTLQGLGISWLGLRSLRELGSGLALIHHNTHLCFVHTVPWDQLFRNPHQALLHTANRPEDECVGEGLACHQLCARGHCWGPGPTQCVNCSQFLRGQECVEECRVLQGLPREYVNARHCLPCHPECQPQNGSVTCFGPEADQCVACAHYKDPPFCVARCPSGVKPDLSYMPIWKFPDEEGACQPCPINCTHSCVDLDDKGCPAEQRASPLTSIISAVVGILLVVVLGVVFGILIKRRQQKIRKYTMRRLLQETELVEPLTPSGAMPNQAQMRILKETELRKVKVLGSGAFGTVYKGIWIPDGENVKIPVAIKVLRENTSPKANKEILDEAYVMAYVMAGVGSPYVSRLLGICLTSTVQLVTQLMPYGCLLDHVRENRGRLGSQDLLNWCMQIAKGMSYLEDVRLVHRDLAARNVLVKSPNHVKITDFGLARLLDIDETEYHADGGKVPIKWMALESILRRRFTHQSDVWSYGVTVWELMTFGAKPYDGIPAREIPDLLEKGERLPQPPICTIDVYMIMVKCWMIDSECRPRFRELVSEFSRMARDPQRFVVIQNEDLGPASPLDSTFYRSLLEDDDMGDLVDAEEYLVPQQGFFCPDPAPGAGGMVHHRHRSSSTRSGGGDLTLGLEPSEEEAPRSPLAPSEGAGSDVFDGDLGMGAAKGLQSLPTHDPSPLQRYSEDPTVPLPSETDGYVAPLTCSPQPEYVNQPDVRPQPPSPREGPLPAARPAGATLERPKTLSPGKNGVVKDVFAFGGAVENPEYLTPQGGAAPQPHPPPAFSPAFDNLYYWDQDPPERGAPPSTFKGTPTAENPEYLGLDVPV
T1 sequence (P04626 23-1255): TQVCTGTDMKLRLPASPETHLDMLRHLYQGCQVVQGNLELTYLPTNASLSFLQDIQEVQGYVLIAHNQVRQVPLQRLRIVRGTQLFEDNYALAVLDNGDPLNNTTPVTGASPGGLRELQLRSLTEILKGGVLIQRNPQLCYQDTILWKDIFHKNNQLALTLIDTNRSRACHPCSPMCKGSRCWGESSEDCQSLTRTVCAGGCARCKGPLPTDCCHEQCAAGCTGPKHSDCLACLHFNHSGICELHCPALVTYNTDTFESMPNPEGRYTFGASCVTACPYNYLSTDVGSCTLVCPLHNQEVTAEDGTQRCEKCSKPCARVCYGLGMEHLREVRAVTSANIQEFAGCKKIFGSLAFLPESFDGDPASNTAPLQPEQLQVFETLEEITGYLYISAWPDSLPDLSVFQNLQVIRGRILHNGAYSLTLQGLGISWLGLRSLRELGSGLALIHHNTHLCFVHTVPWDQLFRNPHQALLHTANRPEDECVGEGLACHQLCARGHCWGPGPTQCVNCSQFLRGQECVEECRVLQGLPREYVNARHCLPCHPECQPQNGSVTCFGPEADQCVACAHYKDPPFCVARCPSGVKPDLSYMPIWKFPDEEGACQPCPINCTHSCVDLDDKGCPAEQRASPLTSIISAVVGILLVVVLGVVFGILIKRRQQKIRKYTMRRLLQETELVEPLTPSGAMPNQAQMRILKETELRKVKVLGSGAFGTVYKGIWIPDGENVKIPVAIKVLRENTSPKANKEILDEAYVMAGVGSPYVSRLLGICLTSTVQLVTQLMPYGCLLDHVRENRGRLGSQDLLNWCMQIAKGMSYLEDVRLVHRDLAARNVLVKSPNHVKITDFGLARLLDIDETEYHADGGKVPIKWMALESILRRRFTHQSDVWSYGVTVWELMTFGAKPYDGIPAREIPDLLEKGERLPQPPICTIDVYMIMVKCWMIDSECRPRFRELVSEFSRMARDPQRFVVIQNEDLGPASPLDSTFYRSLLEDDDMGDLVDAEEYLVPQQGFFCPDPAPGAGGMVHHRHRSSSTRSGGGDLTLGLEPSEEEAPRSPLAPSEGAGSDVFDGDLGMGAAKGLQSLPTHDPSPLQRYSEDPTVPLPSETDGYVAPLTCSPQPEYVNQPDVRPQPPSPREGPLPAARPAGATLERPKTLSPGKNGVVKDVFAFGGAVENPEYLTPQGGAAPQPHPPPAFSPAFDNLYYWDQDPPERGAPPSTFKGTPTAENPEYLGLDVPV
T2 sequence (P00533 25-1210): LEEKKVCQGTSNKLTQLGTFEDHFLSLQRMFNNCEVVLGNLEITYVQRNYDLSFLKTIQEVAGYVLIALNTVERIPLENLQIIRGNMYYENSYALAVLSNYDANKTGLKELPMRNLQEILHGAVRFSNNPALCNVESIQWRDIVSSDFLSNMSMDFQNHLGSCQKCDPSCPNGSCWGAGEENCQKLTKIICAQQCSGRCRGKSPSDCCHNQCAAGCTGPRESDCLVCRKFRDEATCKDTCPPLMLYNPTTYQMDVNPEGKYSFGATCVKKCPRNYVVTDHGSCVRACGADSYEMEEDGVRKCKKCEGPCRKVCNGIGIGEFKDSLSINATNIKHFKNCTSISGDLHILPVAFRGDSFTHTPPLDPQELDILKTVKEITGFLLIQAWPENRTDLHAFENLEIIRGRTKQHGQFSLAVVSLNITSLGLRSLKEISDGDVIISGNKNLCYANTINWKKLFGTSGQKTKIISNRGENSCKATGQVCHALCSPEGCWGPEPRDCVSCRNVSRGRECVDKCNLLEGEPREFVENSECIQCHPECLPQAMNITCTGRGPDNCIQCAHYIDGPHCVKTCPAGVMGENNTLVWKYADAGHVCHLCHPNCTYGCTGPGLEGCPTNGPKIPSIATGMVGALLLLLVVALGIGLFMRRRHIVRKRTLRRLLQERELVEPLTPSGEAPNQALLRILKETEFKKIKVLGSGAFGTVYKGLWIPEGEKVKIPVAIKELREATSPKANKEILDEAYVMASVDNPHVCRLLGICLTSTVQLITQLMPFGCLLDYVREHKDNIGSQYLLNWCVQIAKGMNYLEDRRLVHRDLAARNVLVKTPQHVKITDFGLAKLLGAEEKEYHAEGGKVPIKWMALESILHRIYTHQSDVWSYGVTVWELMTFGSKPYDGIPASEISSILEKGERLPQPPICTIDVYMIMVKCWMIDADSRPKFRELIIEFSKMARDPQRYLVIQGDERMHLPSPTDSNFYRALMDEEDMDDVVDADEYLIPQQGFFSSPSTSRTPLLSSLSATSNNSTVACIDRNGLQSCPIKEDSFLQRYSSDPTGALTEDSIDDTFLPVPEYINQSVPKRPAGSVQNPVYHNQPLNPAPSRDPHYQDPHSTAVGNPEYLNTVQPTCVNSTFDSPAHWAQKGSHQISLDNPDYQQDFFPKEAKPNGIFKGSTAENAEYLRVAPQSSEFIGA

As to `Cc1cc(Nc2ncnc3ccc(N4CCN(C(=O)/C=C/CN(C)C)C[C@@H]4C)nc23)ccc1Cc1ccn2ncnc2c1` [Compound 105, (2E)-4-(dimethylamino)-1-[(3S)-3-methyl-4-{4-[(3-methyl-4-{[1,2,4]triazolo[1,5-a]pyridin-7-ylmethyl}phenyl)amino]pyrido[3,2-d]pyrimidin-6-yl}piperazin-1-yl]but-2-en-1-one], the pIC50 in test [1] is 7.36; in test [2] it was under 5.00. Besides, at Ba/F3 ERBB2 YVMA, the GI50 was found to be 145 nM.

For `C=CC(=O)N1CCN(c2ccc3ncnc(Nc4ccc(Cc5ccn6ncnc6c5)c(C)c4)c3c2F)C[C@H]1C` [Compound 62, 1-[(2R)-4-{5-fluoro-4-[(3-methyl-4-{[1,2,4]triazolo[1,5-a]pyridin-7-ylmethyl}phenyl)amino]quinazolin-6-yl}-2-methylpiperazin-1-yl]prop-2-en-1-one], the pIC50 was 7.33 in test [1] and under 5.00 in test [2]. Moreover, the GI50 at Ba/F3 ERBB2 YVMA amounted to 22.7 nM.

For `C=CC(=O)N1CCN(c2ccc3ncnc(Nc4ccc(Oc5ccc6scnc6c5)c(C)c4)c3n2)CC1` [Compound 119, 1-(4-(4-((4-(benzo[d]thiazol-5-yloxy)-3-methylphenyl)amino)pyrido[3,2-d]pyrimidin-6-yl)piperazin-1-yl)prop-2-en-1-one], the figures for the pIC50 in test [1] and in test [2] were 7.59 and 7.01, respectively. The GI50 on Ba/F3 ERBB2 YVMA worked out at 4.67 nM.

Take `CC#CC(=O)N1CCN(c2ccc3ncnc(Nc4ccc(Oc5ccn6ncnc6c5)c(C)c4)c3n2)C[C@H]1C` [Compound 23, 1-[(2R)-2-methyl-4-{4-[(3-methyl-4-{[1,2,4]triazolo[1,5-a]pyridin-7-yloxy}phenyl)amino]pyrido[3,2-d]pyrimidin-6-yl}piperazin-1-yl]but-2-yn-1-one]: the figures for the pIC50 in test [1] and in test [2] were 7.60 and 6.28, respectively. The GI50 at Ba/F3 ERBB2 YVMA was 7.17 nM.

Take `C=CC(=O)N1CCC2(CCN(c3ccc4ncnc(Nc5ccc(Oc6ccn7ncnc7c6)c(C)c5)c4n3)C2)C1` (stereo not drawn) [Compound 20, 1-(7-{4-[(3-methyl-4-{[1,2,4]triazolo[1,5-a]pyridin-7-yloxy}phenyl)amino]pyrido[3,2-d]pyrimidin-6-yl}-2,7-diazaspiro[4.4]nonan-2-yl)prop-2-en-1-one]: the pIC50 in test [1] is 7.42; in test [2] it was under 5.00. Moreover, the GI50 at Ba/F3 ERBB2 YVMA worked out at 21 nM.

`CC#CC(=O)N1CC2CC(C1)N2c1ccc2ncnc(Nc3ccc(Oc4ccn5ncnc5c4)c(C)c3)c2n1` [Compound 28, 1-(6-{4-[(3-methyl-4-{[1,2,4]triazolo[1,5-a]pyridin-7-yloxy}phenyl)amino]pyrido[3,2-d]pyrimidin-6-yl}-3,6-diazabicyclo[3.1.1]heptan-3-yl)but-2-yn-1-one]: the figures for the pIC50 in test [1] and in test [2] were 6.35 and under 5.00, respectively. For the same molecule, at Ba/F3 ERBB2 YVMA, the GI50 was found to be 228 nM.

As for `C=CC(=O)N1[C@H](C)CN(c2ccc3ncnc(Nc4ccc(Oc5ccn6ncnc6c5)c(C)c4)c3n2)C[C@H]1C` [Compound 61, 1-[(2R,6R)-2,6-dimethyl-4-{4-[(3-methyl-4-{[1,2,4]triazolo[1,5-a]pyridin-7-yloxy}phenyl)amino]pyrido[3,2-d]pyrimidin-6-yl}piperazin-1-yl]prop-2-en-1-one], the pIC50 in test [1] is 6.60; in test [2] it was under 5.00. Besides, on Ba/F3 ERBB2 YVMA, the GI50 was over 500 nM.

As to `Cc1cc(Nc2ncnc3ccc(N4CCN(C(=O)/C=C/CN(C)C)[C@H](C)C4)nc23)ccc1Cc1ccn2ncnc2c1` [Compound 117, (R,E)-1-(4-(4-((4-([1,2,4]triazolo[1,5-a]pyridin-7-ylmethyl)-3-methylphenyl)amino)pyrido[3,2-d]pyrimidin-6-yl)-2-methylpiperazin-1-yl)-4-(dimethylamino)but-2-en-1-one], the pIC50 in test [1] is 7.61; in test [2], under 5.00. Moreover, the GI50 at Ba/F3 ERBB2 YVMA was 25.1 nM.

For the molecule `C=CC(=O)N1CCN(c2ccc3ncnc(Nc4ccc(Oc5ccc6c(c5)ncn6C)c(C)c4)c3n2)C[C@@H]1C` [Compound 47, 1-[(2S)-2-methyl-4-[4-({3-methyl-4-[(1-methyl-1,3-benzodiazol-5-yl)oxy]phenyl}amino)pyrido[3,2-d]pyrimidin-6-yl]piperazin-1-yl]prop-2-en-1-one], the values for the pIC50 in test [1] and in test [2] were 7.52 and 5.61, respectively. In addition, the GI50 at Ba/F3 ERBB2 YVMA worked out at 14 nM.

Turning to `C=CC(=O)N1C2CCC1CN(c1ccc3ncnc(Nc4ccc(Oc5ccc6c(c5)ncn6C)c(C)c4)c3n1)C2` [Compound 74, 1-(3-(4-((3-methyl-4-((1-methyl-1H-benzo[d]imidazol-5-yl)oxy)phenyl)amino)pyrido[3,2-d]pyrimidin-6-yl)-3,8-diazabicyclo[3.2.1]octan-8-yl)prop-2-en-1-one], the values for the pIC50 in test [1] and in test [2] were 7.43 and 5.99, respectively. Besides, the GI50 at Ba/F3 ERBB2 YVMA amounted to 27.9 nM.

As for `C=CC(=O)N1CCN(c2ccc3ncnc(Nc4ccc(Oc5ccc6c(c5)ncn6C)c(C)c4)c3c2)CC1` [Compound 88, 1-{4-[4-({3-methyl-4-[(1-methyl-1,3-benzodiazol-5-yl)oxy]phenyl}amino)quinazolin-6-yl]piperazin-1-yl}prop-2-en-1-one], the pIC50 in test [1] was 7.78; in test [2] it was 6.14. For the same molecule, the GI50 on Ba/F3 ERBB2 YVMA stood at 22 nM.

Regarding `C=CC(=O)N1CCCC2(C1)CN(c1ccc3ncnc(Nc4ccc(Oc5ccn6ncnc6c5)c(C)c4)c3n1)C2` [Compound 46, 1-(2-{4-[(3-methyl-4-{[1,2,4]triazolo[1,5-a]pyridin-7-yloxy}phenyl)amino]pyrido[3,2-d]pyrimidin-6-yl}-2,6-diazaspiro[3.5]nonan-6-yl)prop-2-en-1-one], the pIC50 was 7.34 in test [1] and under 5.00 in test [2]. Also, the GI50 at Ba/F3 ERBB2 YVMA was found to be 24.6 nM.

Turning to `C=CC(=O)N1CCN(c2ccc3ncnc(Nc4ccc(Cc5ccn6ncnc6c5)c(C)c4)c3n2)C[C@H]1C` [Compound 51, 1-[(2R)-2-methyl-4-{4-[(3-methyl-4-{[1,2,4]triazolo[1,5-a]pyridin-7-ylmethyl}phenyl)amino]pyrido[3,2-d]pyrimidin-6-yl}piperazin-1-yl]prop-2-en-1-one], the pIC50 in test [1] is 7.68; in test [2], 5.78. Moreover, at Ba/F3 ERBB2 YVMA, the GI50 was 5.71 nM.

Consider `C=CC(=O)N1CCN(c2ncc3ncnc(Nc4ccc(Oc5ccn6ncnc6c5)c(C)c4)c3n2)[C@@H](C)C1` [Compound 70, 1-[(3S)-3-methyl-4-{8-[(3-methyl-4-{[1,2,4]triazolo[1,5-a]pyridin-7-yloxy}phenyl)amino]pyrimido[5,4-d][1,3]diazin-2-yl}piperazin-1-yl]prop-2-en-1-one], for which the pIC50 is 7.79 in test [1] and 5.63 in test [2]. For the same molecule, at Ba/F3 ERBB2 YVMA, the GI50 came out at 9.96 nM.

As to `C=CC(=O)N1CCN(c2cc3c(Nc4ccc(Oc5ccn6ncnc6c5)c(C)c4)ncnc3cn2)[C@@H](C)C1` [Compound 69, (S)-1-(4-(4-((4-([1,2,4]triazolo[1,5-a]pyridin-7-yloxy)-3-methylphenyl)amino)pyrido[3,4-d]pyrimidin-6-yl)-3-methylpiperazin-1-yl)prop-2-en-1-one], the figures for the pIC50 in test [1] and in test [2] were 7.22 and under 5.00, respectively. Further, on Ba/F3 ERBB2 YVMA, the GI50 turned out to be 155 nM.

As for `C=CC(=O)N1CC[C@@H](Oc2ccc3ncnc(Nc4ccc(Oc5ccc6c(c5)ncn6C)c(C)c4)c3c2)C1` [Compound 37, 1-[(3R)-3-{[4-({3-methyl-4-[(1-methyl-1,3-benzodiazol-5-yl)oxy]phenyl}amino)quinazolin-6-yl]oxy}pyrrolidin-1-yl]prop-2-en-1-one], the pIC50 in test [1] was 7.47; in test [2], 5.54. Besides, at Ba/F3 ERBB2 YVMA, the GI50 is 52.8 nM.

Regarding `C=CC(=O)N1CCN(c2ccc3ncnc(Nc4ccc(O[C@@H]5CCCOC5)c(C)c4)c3c2)CC1` [Compound 102, 1-{4-[4-({3-methyl-4-[(3R)-oxan-3-yloxy]phenyl}amino)quinazolin-6-yl]piperazin-1-yl}prop-2-en-1-one], the figures for the pIC50 in test [1] and in test [2] were 7.32 and 6.61, respectively. In addition, on Ba/F3 ERBB2 YVMA, the GI50 worked out at 43.9 nM.

In the case of `C=CC(=O)N1CC[C@H](Oc2ccc3ncnc(Nc4ccc(Oc5ccc6c(c5)ncn6C)c(C)c4)c3n2)C1` [Compound 49, 1-[(3S)-3-{[4-({3-methyl-4-[(1-methyl-1,3-benzodiazol-5-yl)oxy]phenyl}amino)pyrido[3,2-d]pyrimidin-6-yl]oxy}pyrrolidin-1-yl]prop-2-en-1-one], the pIC50 was 7.24 in test [1] and 6.46 in test [2]. Also, the GI50 on Ba/F3 ERBB2 YVMA was 15.7 nM.

For `C=CC(=O)N1CCN(c2cc3c(Nc4ccc(Oc5ccc6c(c5)ncn6C)c(C)c4)ncnc3cn2)[C@@H](C)C1` [Compound 107, 1-[(3S)-3-methyl-4-[4-({3-methyl-4-[(1-methyl-1,3-benzodiazol-5-yl)oxy]phenyl}amino)pyrido[3,4-d]pyrimidin-6-yl]piperazin-1-yl]prop-2-en-1-one], the pIC50 is 7.66 in test [1] and 5.54 in test [2]. In addition, the GI50 on Ba/F3 ERBB2 YVMA is 73.4 nM.

As to `C=CC(=O)N1CCN(c2cc3c(Nc4ccc(Cc5ccn6ncnc6c5)c(C)c4)ncnc3cn2)[C@@H](C)C1` [Compound 85, (S)-1-(4-(4-((4-([1,2,4]triazolo[1,5-a]pyridin-7-ylmethyl)-3-methylphenyl)amino)pyrido[3,4-d]pyrimidin-6-yl)-3-methylpiperazin-1-yl)prop-2-en-1-one], the pIC50 is 7.32 in test [1] and under 5.00 in test [2]. Also, the GI50 on Ba/F3 ERBB2 YVMA was determined as 69.7 nM.

For the origin of these results see patent US20250136595A1, “ACYLATED HETEROCYCLIC QUINAZOLINE DERIVATIVES AS INHIBITORS OF ERBB2” (Enliven Inc., priority 2022, published 2025).
